In patent US20100249071A1, “Modulators of S1P and Methods of Making And Using” (Exelixis, Inc., priority 2009, published 2010) one finds EC50 data, which are given here for 18 compounds.

Like-named read-outs stand apart in the source and are kept apart here.

Assay [1] addresses T1, S1P1 (Homo sapiens, UniProt P21453).
T1 construct: host or cells: U2OS
Briefly: Tango β-arrestin recruitment assay in U2OS cells (Assay 2b). The class given is cell-based. In outline: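 In this agonist-mode Tango assay, U2OS cells carrying S1P1 and the reporter were serum-starved 48 h, then exposed overnight at 37 °C to compound (10 points, 3-fold, top 1 μM, 1% DMSO). β-Lactamase F460/F530 ratio was normalized to 1 μM S1P, and EC50 was fitted.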
Background: Arrestin recruitment assays detect the binding of arrestin to an activated receptor.

Assay [2] has as its target T2, hS1PR5 (hEdg8) membrane protein (Homo sapiens, UniProt Q9H228).
T2 construct: expressed in transfected cells; host or cells: CHO
The experiment in a line: hS1P5R GTPγS binding assay (Assay 4). The class given is biochemical. In short, it runs like this: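 Membranes (5 μg) from CHO cells expressing hS1PR5, incubated 1 h at room temperature with 30 μM GDP, 0.1 nM [35S]GTPγS, 0.25% fatty acid free BSA and serially diluted compound in pH 7.9 Tris buffer with MgCl2. WGA SPA beads added for another 1 h, then bound [35S]GTPγS counted by scintillation.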
For orientation: GTPγS resists hydrolysis and so accumulates on activated G proteins.

The target in assay [3] is T3, hS1P1R (hEdg1) membrane protein (Homo sapiens, UniProt P21453).
T3 construct: purchased Lonza
T3 sequence (P21453 whole entry): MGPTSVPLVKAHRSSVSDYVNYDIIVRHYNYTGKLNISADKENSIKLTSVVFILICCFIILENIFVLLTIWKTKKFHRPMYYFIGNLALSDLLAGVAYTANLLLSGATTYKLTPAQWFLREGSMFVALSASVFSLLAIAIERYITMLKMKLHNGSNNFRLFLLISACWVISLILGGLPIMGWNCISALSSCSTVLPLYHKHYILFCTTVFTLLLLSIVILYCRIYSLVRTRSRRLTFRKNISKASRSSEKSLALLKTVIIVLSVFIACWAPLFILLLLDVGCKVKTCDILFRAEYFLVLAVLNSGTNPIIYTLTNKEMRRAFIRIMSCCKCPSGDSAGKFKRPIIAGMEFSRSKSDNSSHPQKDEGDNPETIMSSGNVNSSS
Briefly: hS1P1R GTPγS binding assay (Assay 3a). The class given is biochemical. In short, it runs like this:
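Membranes (4 μg) expressing hS1P1R incubated 1 h at room temperature with 30 μM GDP, 0.1 nM [^35S]GTPγS, 0.25% fatty acid free BSA and serially diluted agonist in Tris-HCl pH 7.9/NaCl/MgCl2/EGTA buffer. Bound [^35S]GTPγS captured on WGA SPA beads (further 1 h) and counted.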

The target in assay [4] is T4, S1P3 (Homo sapiens, UniProt Q99500).
T4 construct: host or cells: HEK293 (transient transfection)
T4 sequence (P32121 whole entry): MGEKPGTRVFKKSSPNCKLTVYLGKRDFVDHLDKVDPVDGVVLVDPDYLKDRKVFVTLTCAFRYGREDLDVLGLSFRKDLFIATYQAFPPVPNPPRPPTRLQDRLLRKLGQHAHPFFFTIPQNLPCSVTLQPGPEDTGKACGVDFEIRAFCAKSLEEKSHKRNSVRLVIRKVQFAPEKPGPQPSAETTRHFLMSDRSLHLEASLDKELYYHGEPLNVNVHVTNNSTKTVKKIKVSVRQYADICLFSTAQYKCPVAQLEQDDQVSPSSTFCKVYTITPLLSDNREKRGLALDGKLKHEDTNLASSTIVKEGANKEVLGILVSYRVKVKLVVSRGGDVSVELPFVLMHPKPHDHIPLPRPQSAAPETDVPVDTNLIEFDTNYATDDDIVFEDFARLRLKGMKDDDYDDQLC
T4 sequence (Q99500 whole entry): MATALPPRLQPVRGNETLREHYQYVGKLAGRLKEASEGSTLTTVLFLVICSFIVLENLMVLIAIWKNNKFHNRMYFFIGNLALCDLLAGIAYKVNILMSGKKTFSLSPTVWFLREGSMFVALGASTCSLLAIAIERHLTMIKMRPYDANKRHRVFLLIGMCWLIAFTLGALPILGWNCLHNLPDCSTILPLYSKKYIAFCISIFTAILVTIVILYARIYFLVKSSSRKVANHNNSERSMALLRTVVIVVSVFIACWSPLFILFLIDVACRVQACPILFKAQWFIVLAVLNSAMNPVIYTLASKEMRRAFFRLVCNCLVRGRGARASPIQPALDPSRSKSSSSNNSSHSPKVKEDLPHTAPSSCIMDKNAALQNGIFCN
Briefly: S1P3 Tango β-arrestin recruitment assay in HEK293 cells (Assay 5). Format: cell-based. In short, it runs like this: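 HEK293 cells transiently expressing S1P3 fused via TEV-cleavable linker to tTA, with β-arrestin2–TEV, treated 16-18 h at 37 °C with compounds (top 10 μM, 10-point 3-fold, 1% DMSO). Luciferase reporter luminescence normalised to DMSO background and 5 μM S1P control as percent activity; EC50 from concentration-response curves.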

The mark [5] stands for this setting: * = rEC50 measured rather than EC50, read-out: Assay 2b rEC50 (relative EC50, cells marked *).

T2 sequence (Q9H228 whole entry): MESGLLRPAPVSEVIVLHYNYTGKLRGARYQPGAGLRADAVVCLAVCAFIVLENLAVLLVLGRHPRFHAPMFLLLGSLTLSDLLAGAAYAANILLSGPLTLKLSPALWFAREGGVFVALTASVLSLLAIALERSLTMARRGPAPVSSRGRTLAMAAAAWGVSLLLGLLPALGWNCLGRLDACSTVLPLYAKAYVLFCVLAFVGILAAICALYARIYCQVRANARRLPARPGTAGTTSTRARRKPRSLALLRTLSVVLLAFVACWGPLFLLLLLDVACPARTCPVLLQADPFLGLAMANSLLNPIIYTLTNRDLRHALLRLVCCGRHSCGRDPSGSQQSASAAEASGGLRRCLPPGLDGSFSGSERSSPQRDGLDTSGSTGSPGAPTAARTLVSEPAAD
T1 sequence (P32121 whole entry): as the sequence (P32121 whole entry) above
T1 sequence (P21453 whole entry): as the sequence (P21453 whole entry) above

On to `CC(C)Oc1ccc(-c2nnc(-c3cc(F)c(OC[C@H](N)CO)cc3Cl)s2)cc1C(N)=O` [Entry 80, 5-[5-(4-{[(2R)-2-amino-3-hydroxypropyl]oxy}-2-chloro-5-fluorophenyl)-1,3,4-thiadiazol-2-yl]-2-[(1-methylethyl)oxy]benzamide], for which the EC50 in assay [1] (setting [5]) is 250 to 2800 nM; in assay [2] it was 250 to 2800 nM; in assay [3], 250 to 2800 nM; in assay [4] (read-out: Assay 5 EC50), over 10000 nM.
For the compound `CC(C)Nc1ncc(-c2nnc(-c3cc(F)c(OC[C@H](N)CO)cc3Cl)s2)cc1Cl` [Entry 81, (2R)-2-amino-3-{[5-chloro-4-(5-{5-chloro-6-[(1-methylethyl)amino]pyridin-3-yl}-1,3,4-thiadiazol-2-yl)-2-fluorophenyl]oxy}propan-1-ol], the EC50 was 10 to 50 nM in assay [1] (read-out: Assay 2b EC50), 250 to 2800 nM in assay [2], 10 to 50 nM in assay [3] and over 10000 nM in assay [4] (read-out: Assay 5 EC50).
On to `CC(C)Oc1ccc(-c2nnc(-c3cc(F)c(OC[C@H](N)[C@@H](C)O)cc3Cl)s2)cc1C#N` [Entry 82, 5-[5-(4-{[(2S,3R)-2-amino-3-hydroxybutyl]oxy}-2-chloro-5-fluorophenyl)-1,3,4-thiadiazol-2-yl]-2-[(1-methylethyl)oxy]benzonitrile], for which the EC50 in assay [1] (read-out: Assay 2b EC50) is at most 10 nM; in assay [2] it was 10 to 50 nM; in assay [3], at most 10 nM; in assay [4] (read-out: Assay 5 EC50) it was over 10000 nM.
On to `CC(C)Oc1ccc(-c2nnc(-c3cc(F)c(OC[C@H](N)[C@H](C)O)cc3Cl)s2)cc1C#N` [Entry 83, 5-[5-(4-{[(2S,3S)-2-amino-3-hydroxybutyl]oxy}-2-chloro-5-fluorophenyl)-1,3,4-thiadiazol-2-yl]-2-[(1-methylethyl)oxy]benzonitrile], for which the EC50 in assay [1] (read-out: Assay 2b EC50) was at most 10 nM; in assay [2], 10 to 50 nM; in assay [3] it was at most 10 nM; in assay [4] (read-out: Assay 5 EC50) it was over 10000 nM.
In the case of `CC(C)Nc1ccc(-c2nnc(-c3cc(F)c(OC[C@H](N)[C@@H](C)OP(=O)(O)O)cc3Cl)s2)cn1` [Entry 85, (1R,2S)-2-amino-3-{[5-chloro-2-fluoro-4-(5-{6-[(1-methylethyl)amino]pyridin-3-yl}-1,3,4-thiadiazol-2-yl)phenyl]oxy}-1-methylpropyl dihydrogen phosphate], the EC50 in assay [1] (read-out: Assay 2b EC50) was at most 10 nM; in assay [2] it was 10 to 50 nM; in assay [3] it was at most 10 nM; in assay [4] (read-out: Assay 5 EC50), over 10000 nM.
Consider `CC(C)Oc1ccc(-c2nnc(-c3cc(F)c(OC[C@@H](N)[C@@H](C)O)cc3Cl)s2)cc1C#N` [Entry 86, 5-[5-(4-{[(2R,3R)-2-amino-3-hydroxybutyl]oxy}-2-chloro-5-fluorophenyl)-1,3,4-thiadiazol-2-yl]-2-[(1-methylethyl)oxy]benzonitrile], for which the EC50 is at most 10 nM in assay [1] (read-out: Assay 2b EC50); 10 to 50 nM in assay [2]; at most 10 nM in assay [3]; over 250 nM in assay [4] (* = rEC50 measured rather than EC50, read-out: Assay 5 rEC50 (relative EC50, cells marked *)).
As for `CC(C)Nc1ncc(-c2nnc(-c3cc(F)c(OC[C@H](N)CO)cc3Cl)s2)cn1` [Entry 89, (2R)-2-amino-3-{[5-chloro-2-fluoro-4-(5-{2-[(1-methylethyl)amino]pyrimidin-5-yl}-1,3,4-thiadiazol-2-yl)phenyl]oxy}propan-1-ol], the EC50 in assay [1] (read-out: Assay 2b EC50) was 10 to 50 nM; in assay [2] it was 250 to 2800 nM; in assay [3], 50 to 250 nM; in assay [4] (read-out: Assay 5 EC50) it was over 10000 nM.
On to `CC(C)Nc1ncc(-c2nnc(-c3cc(F)c(OC[C@@H](N)CO)cc3Cl)s2)cn1` [Entry 90, (2S)-2-amino-3-{[5-chloro-2-fluoro-4-(5-{2-[(1-methylethyl)amino]pyrimidin-5-yl}-1,3,4-thiadiazol-2-yl)phenyl]oxy}propan-1-ol], for which the EC50 in assay [1] (setting [5]) was at most 10 nM; in assay [2], 250 to 2800 nM; in assay [3], 50 to 250 nM; in assay [4] (read-out: Assay 5 EC50), at most 250 nM.
For `CC(C)Nc1ccc(-c2nnc(-c3cc(F)c(OC[C@@H](N)[C@H](C)OP(=O)(O)O)cc3Cl)s2)cn1` [Entry 93, (1S,2R)-2-amino-3-{[5-chloro-2-fluoro-4-(5-{6-[(1-methylethyl)amino]pyridin-3-yl}-1,3,4-thiadiazol-2-yl)phenyl]oxy}-1-methylpropyl dihydrogen phosphate] the same measures were at most 10 nM, 10 to 50 nM, at most 10 nM and over 250 nM.
For `Cc1cc(-c2nnc(-c3cc(F)c(OC[C@H](N)[C@@H](C)OP(=O)(O)O)cc3Cl)s2)cc(NC(C)C)n1` [Entry 94, (1R,2S)-2-amino-3-{[5-chloro-2-fluoro-4-(5-{2-methyl-6-[(1-methylethyl)amino]pyridin-4-yl}-1,3,4-thiadiazol-2-yl)phenyl]oxy}-1-methylpropyl dihydrogen phosphate] the same measures were at most 10 nM, 10 to 50 nM, at most 10 nM and at most 250 nM.
As to `Cc1cc(-c2nnc(-c3cc(F)c(OC[C@H](N)[C@H](C)OP(=O)(O)O)cc3Cl)s2)cc(NC(C)C)n1` [Entry 95, (1S,2S)-2-amino-3-{[5-chloro-2-fluoro-4-(5-{2-methyl-6-[(1-methylethyl)amino]pyridin-4-yl}-1,3,4-thiadiazol-2-yl)phenyl]oxy}-1-methylpropyl dihydrogen phosphate], the EC50 in assay [1] (read-out: Assay 2b EC50) is at most 10 nM; in assay [2], 50 to 250 nM; in assay [3], at most 10 nM; in assay [4] (read-out: Assay 5 EC50), over 250 nM.
Regarding `Cc1cc(-c2nnc(-c3cc(F)c(OC[C@@H](N)[C@H](C)O)cc3Cl)s2)cnc1NC(C)C` [Entry 96, (2S,3R)-3-amino-4-{[5-chloro-2-fluoro-4-(5-{5-methyl-6-[(1-methylethyl)amino]pyridin-3-yl}-1,3,4-thiadiazol-2-yl)phenyl]oxy}butan-2-ol], the EC50 in assay [1] (read-out: Assay 2b EC50) was at most 10 nM; in assay [2], 2800 to 10000 nM; in assay [3] it was 250 to 2800 nM; in assay [4] (read-out: Assay 5 EC50), over 10000 nM.
For `Cc1cc(-c2nnc(-c3cc(F)c(OC[C@@H](N)[C@@H](C)O)cc3Cl)s2)cc(NC(C)C)n1` [Entry 97, (2R,3R)-3-amino-4-{[5-chloro-2-fluoro-4-(5-{2-methyl-6-[(1-methylethyl)amino]pyridin-4-yl}-1,3,4-thiadiazol-2-yl)phenyl]oxy}butan-2-ol] the same measures were at most 10 nM, 50 to 250 nM, at most 10 nM and over 250 nM.
For `Cc1cc(-c2nnc(-c3cc(F)c(OC[C@@H](N)[C@H](C)O)cc3Cl)s2)cc(NC(C)C)n1` [Entry 98, (2S,3R)-3-amino-4-{[5-chloro-2-fluoro-4-(5-{2-methyl-6-[(1-methylethyl)amino]pyridin-4-yl}-1,3,4-thiadiazol-2-yl)phenyl]oxy}butan-2-ol], the EC50 in assay [1] (read-out: Assay 2b EC50) was at most 10 nM; in assay [2], 50 to 250 nM; in assay [3], at most 10 nM; in assay [4] (read-out: Assay 5 EC50), at most 250 nM.
`Cc1nc(-c2nnc(-c3cc(F)c(OC[C@H](N)[C@@H](C)O)cc3Cl)s2)ccc1NC(C)C` [Entry 103, (2R,3S)-3-amino-4-{[5-chloro-2-fluoro-4-(5-{6-methyl-5-[(1-methylethyl)amino]pyridin-2-yl}-1,3,4-thiadiazol-2-yl)phenyl]oxy}butan-2-ol]: the EC50 in assay [1] (read-out: Assay 2b EC50) was 10 to 50 nM; in assay [2], 10 to 50 nM; in assay [3], 10 to 50 nM; in assay [4] (read-out: Assay 5 EC50), over 250 nM.
As for “(1R,2R)-2-amino-3-{[5-chloro-2-fluoro- 4-(5-{6-[(1-methylethyl)amino]pyridin- 3-yl}-1,3,4-thiadiazol-2-yl)phenyl]oxy}- 1-methylpropyl dihydrogen phosphate [Entry 102]”, the EC50 is at most 10 nM in assay [1] (setting [5]), at most 10 nM in assay [2], at most 10 nM in assay [3] and at most 250 nM in assay [4] (read-out: Assay 5 EC50).
For the compound “(1R,2S)-2-amino-3-{[5-chloro-2-fluoro- 4-(5-{3-methyl-4-[(1- methylethyl)oxy]phenyl}-1,3,4- thiadiazol-2-yl)phenyl]oxy}-1- methylpropyl dihydrogen phosphate [Entry 99]”, the EC50 in assay [1] (read-out: Assay 2b EC50) is at most 10 nM; in assay [2], 10 to 50 nM; in assay [3], at most 10 nM; in assay [4] (read-out: Assay 5 EC50) it was at most 250 nM.
Regarding “(1S,2R)-2-amino-3-{[5-chloro-2-fluoro- 4-(5-{2-methyl-6-[(1- methylethyl)amino]pyridin-4-yl}-1,3,4- thiadiazol-2-yl)phenyl]oxy}-1- methylpropyl dihydrogen phosphate [Entry 101]”, the concentration giving a half-maximal response (EC50) in assay [1] (read-out: Assay 2b EC50) was at most 10 nM; in assay [2] it was at most 10 nM; in assay [3] it was at most 10 nM; in assay [4] (read-out: Assay 5 EC50), over 250 nM.

A word on the EC50: it is the concentration needed to bring the measured effect to its halfway point.
